Test results as given in the NIST ThermoML archive (doi:10.1007/s10765-011-0978-y).
± gives the expanded uncertainty stated by the source.

Details: Fluid (supercritical or subcritical phases), Falling or rolling sphere viscometry

FCC(F)(F)F [1,1,1,2-tetrafluoroethane]
viscosity (293.15 K, 10000 kPa): 0.255 ± 0.0088 mPa·s | viscosity (293.15 K, 25000 kPa): 0.3008 ± 0.01 mPa·s | viscosity (293.15 K, 50000 kPa): 0.3631 ± 0.012 mPa·s | viscosity (293.15 K, 100000 kPa): 0.5045 ± 0.016 mPa·s | viscosity (293.15 K, 150000 kPa): 0.6605 ± 0.021 mPa·s | viscosity (293.15 K, 200000 kPa): 0.8252 ± 0.026 mPa·s | viscosity (298.15 K, 10000 kPa): 0.2368 ± 0.0079 mPa·s | viscosity (298.15 K, 25000 kPa): 0.2795 ± 0.0092 mPa·s | viscosity (298.15 K, 50000 kPa): 0.3435 ± 0.011 mPa·s | viscosity (298.15 K, 100000 kPa): 0.4988 ± 0.016 mPa·s | viscosity (298.15 K, 150000 kPa): 0.6459 ± 0.02 mPa·s | viscosity (298.15 K, 200000 kPa): 0.819 ± 0.026 mPa·s | viscosity (298.15 K, 250000 kPa): 0.9773 ± 0.03 mPa·s | viscosity (313.15 K, 10000 kPa): 0.207 ± 0.0071 mPa·s | viscosity (313.15 K, 25000 kPa): 0.2461 ± 0.0082 mPa·s | viscosity (313.15 K, 50000 kPa): 0.3127 ± 0.01 mPa·s | viscosity (313.15 K, 100000 kPa): 0.4302 ± 0.014 mPa·s | viscosity (313.15 K, 150000 kPa): 0.5758 ± 0.018 mPa·s | viscosity (313.15 K, 200000 kPa): 0.7155 ± 0.023 mPa·s | viscosity (313.15 K, 250000 kPa): 0.8952 ± 0.028 mPa·s | viscosity (313.15 K, 300000 kPa): 1.069 ± 0.035 mPa·s | viscosity (313.15 K, 350000 kPa): 1.25 ± 0.039 mPa·s | viscosity (313.15 K, 400000 kPa): 1.446 ± 0.045 mPa·s | viscosity (323.15 K, 10000 kPa): 0.1805 ± 0.0063 mPa·s | viscosity (323.15 K, 25000 kPa): 0.2229 ± 0.0075 mPa·s | viscosity (323.15 K, 50000 kPa): 0.2852 ± 0.0092 mPa·s | viscosity (323.15 K, 100000 kPa): 0.3946 ± 0.013 mPa·s | viscosity (323.15 K, 150000 kPa): 0.502 ± 0.016 mPa·s | viscosity (323.15 K, 200000 kPa): 0.6252 ± 0.02 mPa·s | viscosity (323.15 K, 250000 kPa): 0.7651 ± 0.024 mPa·s | viscosity (323.15 K, 300000 kPa): 0.914 ± 0.029 mPa·s | viscosity (348.15 K, 10000 kPa): 0.1405 ± 0.0051 mPa·s | viscosity (348.15 K, 25000 kPa): 0.1783 ± 0.006 mPa·s | viscosity (348.15 K, 50000 kPa): 0.2343 ± 0.0076 mPa·s | viscosity (348.15 K, 100000 kPa): 0.3327 ± 0.011 mPa·s | viscosity (348.15 K, 150000 kPa): 0.43 ± 0.013 mPa·s | viscosity (348.15 K, 200000 kPa): 0.5368 ± 0.017 mPa·s | viscosity (348.15 K, 250000 kPa): 0.6421 ± 0.02 mPa·s | viscosity (348.15 K, 300000 kPa): 0.7647 ± 0.024 mPa·s | viscosity (348.15 K, 350000 kPa): 0.8894 ± 0.028 mPa·s | viscosity (348.15 K, 400000 kPa): 1.04 ± 0.033 mPa·s | viscosity (373.15 K, 25000 kPa): 0.1531 ± 0.0052 mPa·s | viscosity (373.15 K, 50000 kPa): 0.2038 ± 0.0066 mPa·s | viscosity (373.15 K, 100000 kPa): 0.2931 ± 0.0093 mPa·s | viscosity (373.15 K, 150000 kPa): 0.3764 ± 0.012 mPa·s | viscosity (373.15 K, 200000 kPa): 0.4649 ± 0.015 mPa·s | viscosity (373.15 K, 250000 kPa): 0.5564 ± 0.017 mPa·s | viscosity (373.15 K, 300000 kPa): 0.6468 ± 0.02 mPa·s | viscosity (373.15 K, 350000 kPa): 0.7557 ± 0.024 mPa·s | viscosity (373.15 K, 400000 kPa): 0.8715 ± 0.027 mPa·s | viscosity (398.15 K, 50000 kPa): 0.1725 ± 0.0056 mPa·s | viscosity (398.15 K, 100000 kPa): 0.2544 ± 0.008 mPa·s | viscosity (398.15 K, 150000 kPa): 0.3243 ± 0.01 mPa·s | viscosity (438.15 K, 50000 kPa): 0.1458 ± 0.0047 mPa·s | viscosity (438.15 K, 100000 kPa): 0.2131 ± 0.0068 mPa·s | viscosity (438.15 K, 150000 kPa): 0.2789 ± 0.0087 mPa·s | viscosity (438.15 K, 200000 kPa): 0.3408 ± 0.011 mPa·s | viscosity (438.15 K, 250000 kPa): 0.3977 ± 0.012 mPa·s | viscosity (438.15 K, 300000 kPa): 0.4612 ± 0.014 mPa·s
